{"source": "patent US5500428A", "about": "“Furyl-substituted purines and adenosine antagonists” (Imperial Chemical Industries PLC, priority 1991, dated 1996)", "target": "T1, A2 Adenosine receptor (Rattus norvegicus, UniProt P30543)", "T1 construct": "membrane preparations derived from the rat phaeochromocytoma cell line PC 12; host or cells: PC 12 rat phaeochromocytoma cells, membranes", "T1 sequence (P30543 whole entry)": "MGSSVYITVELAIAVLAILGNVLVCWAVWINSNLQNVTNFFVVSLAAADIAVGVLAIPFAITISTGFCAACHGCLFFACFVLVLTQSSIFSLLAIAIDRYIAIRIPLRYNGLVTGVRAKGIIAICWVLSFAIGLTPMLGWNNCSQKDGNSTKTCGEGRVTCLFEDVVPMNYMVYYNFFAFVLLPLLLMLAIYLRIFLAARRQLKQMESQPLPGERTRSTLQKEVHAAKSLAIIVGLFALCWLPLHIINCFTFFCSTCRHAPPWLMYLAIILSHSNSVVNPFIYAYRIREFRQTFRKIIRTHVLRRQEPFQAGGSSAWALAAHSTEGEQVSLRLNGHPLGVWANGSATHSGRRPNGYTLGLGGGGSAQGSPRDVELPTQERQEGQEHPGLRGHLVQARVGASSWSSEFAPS", "experiment": "A2 Adenosine receptor affinity test: displacement of [3H]-NECA from PC 12 cell membrane preparations", "format": "binding", "procedure": "The membrane preparation is obtained as follows: Frozen pellets of PC12 cells are washed twice with ice cold, buffered, physiological saline and the cells recovered by centrifugation (1500 G) at 3° C. The separated cells are then suspended in hypotonic solution (distilled water), allowed to stand on ice for 30 minutes and are then carefully homogenized using a standard high-speed homogeniser with periodic ice-cooling to obtain a fine suspension. […] The mixture is then incubated at 37° C. After 20 minutes, the reaction is terminated by dilution with ice-cold buffer and transfer onto ice. The material obtained containing the cell membranes is recovered by centrifugation and washed by resuspension in buffer and recentrifugation. The pellet produced is then resuspended in ice-cold buffer using a hand-driven homogenizer. The resultant membrane suspension is frozen and stored under liquid nitrogen until required.\nAfter incubation, the samples are rapidly filtered over glass-fibre mats and the filter mats are washed to remove non-receptor-bound radioligand. Receptor-bound radioligand entrapped on the filter mats is then determined by liquid scintillation counting. Filtration and washing are carried out using a conventional vacuum filtration cell harvester. The specific binding (defined as the difference between the total binding and the non-specific binding) in the presence of the particular test compound is determined and compared with the control value.", "key": {"[1]": {"details": "read-out: displacement of control binding"}}}
{"smiles": "COc1ccc(CCNc2nc(N)c3nc(-c4ccco4)oc3n2)cc1", "note": "[Example 1, 7-amino-2-(2-furyl)-5-[2-(4-methoxyphenyl)ethyl]asino-oxazolo[5,4-d]pyrimidine]", "values": [{"measurement": "IC50", "setting": "[3H]-NECA displacement, PC 12 membranes, inferred from displacement at 10^-5 M and 10^-7 M, read-out: pIC50 (indicated by the % displacement values) (converted)", "result": "< 100", "unit": "nM"}, {"measurement": "inhibition at 0.1 µM", "setting": "[1]", "result": 59, "unit": "%"}, {"measurement": "inhibition at 10 µM", "setting": "[1]", "result": 78, "unit": "%"}]}
